# Data taken from ChEMBL document CHEMBL4229345, “Inhibition of trypanosome alternative oxidase without its N-terminal mitochondrial targeting signal (ΔMTS-TAO) by cationic and non-cationic 4-hydroxybenzoate and 4-alkoxybenzaldehyde derivatives active against T. brucei and T. congolense” (Eur J Med Chem, 2018).
# The source made the active and inactive calls. No cut-off for these calls is given here.
# Experiments:
# [1] = Inhibition of recombinant N-terminal His6 tagged SUMO-fused Trypanosoma brucei brucei TC221 TAO MTS deletion mutant expressed in Escherichia coli FN102 preincubated for 2 mins followed by ubiquinol-1 addition measured over 2 mins by double beam-dual wavelength UV-spectrophotometry
# [2] = tested on: Trypanosoma brucei brucei; experiment: Anti-parasitic activity against bloodstream trypomastigote stage of wild-type Trypanosoma brucei brucei Lister 427 after 48 hrs by resazurin-based assay; type: functional, organism-based; details: Lister 427, 48 h
# [3] = tested on: Trypanosoma brucei brucei; experiment: Anti-parasitic activity against bloodstream trypomastigote stage of wild-type Trypanosoma brucei brucei Lister 427 after 48 hrs in presence of 5 mM glycerol by resazurin-based assay; type: functional, organism-based; details: Lister 427, 48 h
# [4] = tested on: Trypanosoma congolense; experiment: Anti-parasitic activity against bloodstream form of Trypanosoma congolense IL3000 after 48 hrs by resazurin-based assay; type: functional, organism-based; details: IL3000, 48 h
# [5] = tested on: Trypanosoma brucei brucei; experiment: Resistance factor, ratio of EC50 for bloodstream trypomastigote stage of wild-type Trypanosoma brucei brucei Lister 427 in presence of 5 mM glycerol to EC50 for bloodstream trypomastigote stage of wild-type Trypanosoma brucei brucei Lister 427; type: functional
# [6] = Cytotoxicity against HFF cells assessed as reduction in cell viability after 30 hrs by resazurin-based assay; details: human
# [7] = tested on: Trypanosoma brucei brucei; experiment: Anti-parasitic activity against bloodstream trypomastigote stage of Trypanosoma brucei brucei with AQP2/3-dd knock out after 48 hrs by resazurin-based assay; type: functional, organism-based
# [8] = tested on: Trypanosoma brucei brucei; experiment: Anti-parasitic activity against bloodstream trypomastigote stage of Trypanosoma brucei brucei with AQP triple knock out after 48 hrs by resazurin-based assay; type: functional, organism-based
# [9] = tested on: Trypanosoma brucei; experiment: Anti-parasitic activity against bloodstream trypomastigote stage of pentamidine/diminazene/melaminophenyl arsenical resistant Trypanosoma brucei B48 after 48 hrs by resazurin-based assay; type: functional, organism-based; details: B48, 48 h
# [10] = tested on: Trypanosoma brucei brucei; experiment: Resistance factor, ratio of EC50 for bloodstream trypomastigote stage of Trypanosoma brucei brucei with AQP2/3-dd knock out to EC50 for bloodstream trypomastigote stage of wild-type Trypanosoma brucei brucei Lister 427; type: functional
# [11] = tested on: Trypanosoma brucei brucei; experiment: Resistance factor, ratio of EC50 for bloodstream trypomastigote stage of Trypanosoma brucei brucei AQP triple knock out to EC50 for bloodstream trypomastigote stage of wild-type Trypanosoma brucei brucei Lister 427; type: functional
# [12] = Resistance factor, ratio of EC50 for bloodstream trypomastigote stage of pentamidine/diminazene/melaminophenyl arsenical resistant Trypanosoma brucei B48 to EC50 for bloodstream trypomastigote stage of wild-type Trypanosoma brucei brucei Lister 427; type: functional
# [13] = Selectivity index, ratio of CC50 for HFF cells to EC50 for bloodstream trypomastigote stage of wild-type Trypanosoma brucei brucei Lister 427; type: toxicity; details: human, read-out: Ratio CC50/EC50
# [14] = Selectivity index, ratio of CC50 for HFF cells to EC50 for bloodstream form of Trypanosoma congolense IL3000; type: toxicity; details: human, read-out: Ratio CC50/EC50
# [15] = tested on: Trypanosoma brucei brucei; experiment: Potency index, ratio of diminazene EC50 to test compound EC50 for anti-parasitic activity against bloodstream trypomastigote stage of wild-type Trypanosoma brucei brucei Lister 427; type: functional
# [16] = tested on: Trypanosoma congolense; experiment: Potency index, ratio of diminazene EC50 to test compound EC50 for anti-parasitic activity against bloodstream form of Trypanosoma congolense IL3000; type: functional
# [17] = Stability in mouse serum assessed as compound hydrolysis after 24 hrs by LC/MS analysis; type: ADME, cell-free; details: read-out: Drug degradation
# [18] = Half life in mouse serum by LC/MS analysis; type: ADME, cell-free
# [19] = Stability in mouse serum assessed as compound hydrolysis after 2 hrs by LC/MS analysis; type: ADME, cell-free; details: read-out: Drug degradation
# [20] = Stability in horse serum assessed as compound hydrolysis after 2 hrs by LC/MS analysis; type: ADME, cell-free, Equus caballus; details: read-out: Drug degradation
# [21] = tested on: Trypanosoma brucei brucei; experiment: Anti-parasitic activity against bloodstream trypomastigote stage of wild-type Trypanosoma brucei brucei Lister 427; type: functional
# [22] = Non-competitive inhibition of Trypanosoma brucei brucei TC221 TAO expressed in Escherichia coli FN102 assessed as reduction in ubiquinoldependent oxygen consumption by spectrophotometry
# [23] = Stability in horse serum assessed as compound receovery after 24 hrs by LC/MS analysis; type: ADME, cell-free, Equus caballus; details: read-out: Drug recovery
# [24] = Stability in mouse serum assessed as parent compound remaining after 0.25 to 24 hrs by LC/MS analysis; type: ADME, cell-free
# [25] = Protein binding in mouse serum up to 24 hrs by LC/MS analysis; type: ADME, cell-free; details: read-out: PB (converted)
# [26] = Stability in mouse serum assessed as parent compound recovery after 15 mins by LC/MS analysis; type: ADME, cell-free; details: read-out: Drug recovery
# [27] = Competitive inhibition of recombinant N-terminal His6 tagged SUMO-fused Trypanosoma brucei brucei TC221 TAO MTS deletion mutant expressed in Escherichia coli FN102 preincubated for 2 mins followed by ubiquinol-1 addition measured over 2 mins by Lineweaver-Burk plot analysis
# [28] = Drug metabolism in human liver S9 fraction assessed as CYP450 mediated compound hydrolysis by measuring parent compound remaining at 5 uM measured immediately in presence of NADPH by RP-HPLC analysis; type: ADME, subcellular; details: read-out: Stability
# [29] = Drug metabolism in human liver S9 fraction assessed as CYP450 mediated compound hydrolysis by measuring parent compound remaining at 5 uM measured after 15 mins in presence of NADPH by RP-HPLC analysis; type: ADME, subcellular; details: read-out: Stability
# [30] = Drug metabolism in human liver S9 fraction assessed as CYP450 mediated compound hydrolysis by measuring parent compound remaining at 5 uM measured after 30 mins in presence of NADPH by RP-HPLC analysis; type: ADME, subcellular; details: read-out: Stability
# [31] = Drug metabolism in human liver S9 fraction assessed as CYP450 mediated compound hydrolysis by measuring parent compound remaining at 5 uM measured after 60 mins in presence of NADPH by RP-HPLC analysis; type: ADME, subcellular; details: read-out: Stability
# [32] = Drug metabolism in human liver S9 fraction assessed as CYP450 mediated compound hydrolysis by measuring parent compound remaining at 5 uM measured after 120 mins in presence of NADPH by RP-HPLC analysis; type: ADME, subcellular; details: read-out: Stability
# [33] = Drug metabolism in human liver microsomes assessed as CYP450 mediated compound hydrolysis by measuring parent compound remaining at 5 uM measured immediately in presence of NADPH by RP-HPLC analysis; type: ADME; details: read-out: Stability
# [34] = Drug metabolism in human liver microsomes assessed as CYP450 mediated compound hydrolysis by measuring parent compound remaining at 5 uM measured after 15 mins in presence of NADPH by RP-HPLC analysis; type: ADME; details: read-out: Stability
# [35] = Drug metabolism in human liver microsomes assessed as CYP450 mediated compound hydrolysis by measuring parent compound remaining at 5 uM measured after 30 mins in presence of NADPH by RP-HPLC analysis; type: ADME; details: read-out: Stability
# [36] = Drug metabolism in human liver microsomes assessed as CYP450 mediated compound hydrolysis by measuring parent compound remaining at 5 uM measured after 60 mins in presence of NADPH by RP-HPLC analysis; type: ADME; details: read-out: Stability
# [37] = Drug metabolism in human liver microsomes assessed as CYP450 mediated compound hydrolysis by measuring parent compound remaining at 5 uM measured after 120 mins in presence of NADPH by RP-HPLC analysis; type: ADME; details: read-out: Stability
# [38] = Drug metabolism in human liver S9 fraction assessed as UGT mediated compound hydrolysis by measuring parent compound remaining at 5 uM measured immediately in presence of UDPGA by RP-HPLC analysis; type: ADME, subcellular; details: read-out: Stability
# [39] = Drug metabolism in human liver S9 fraction assessed as UGT mediated compound hydrolysis by measuring parent compound remaining at 5 uM measured after 15 mins in presence of UDPGA by RP-HPLC analysis; type: ADME, subcellular; details: read-out: Stability
# [40] = Drug metabolism in human liver S9 fraction assessed as UGT mediated compound hydrolysis by measuring parent compound remaining at 5 uM measured after 30 mins in presence of UDPGA by RP-HPLC analysis; type: ADME, subcellular; details: read-out: Stability
# [41] = Drug metabolism in human liver S9 fraction assessed as UGT mediated compound hydrolysis by measuring parent compound remaining at 5 uM measured after 60 mins in presence of UDPGA by RP-HPLC analysis; type: ADME, subcellular; details: read-out: Stability
# [42] = Drug metabolism in human liver S9 fraction assessed as UGT mediated compound hydrolysis by measuring parent compound remaining at 5 uM measured after 120 mins in presence of UDPGA by RP-HPLC analysis; type: ADME, subcellular; details: read-out: Stability
# [43] = Stability in horse serum assessed as compound hydrolysis after 24 hrs by LC/MS analysis; type: ADME, cell-free, Equus caballus; details: read-out: Drug degradation
# [44] = tested on: Trypanosoma brucei rhodesiense; experiment: In vivo anti-parasitic activity against luciferase tagged Trypanosoma brucei rhodesiense STIB900 infected in NMRI mouse assessed as reduction in parasitemia at 10 mg/kg, ip for 4 consecutive days starting at day 3 post infection and measured after last treatment on day 7 (reference value: 0%); type: functional; design: scale not given: the % may be the effect or the level left
# [45] = tested on: Trypanosoma brucei rhodesiense; experiment: In vivo anti-parasitic activity against luciferase tagged Trypanosoma brucei rhodesiense STIB900 infected in NMRI mouse assessed as reduction in parasitemia at 10 mg/kg, ip for 4 consecutive days starting at day 3 post infection and measured 3 days hrs after last treatment on day 10 (reference value: 0%); type: functional; design: scale not given: the % may be the effect or the level left
# [46] = tested on: Trypanosoma brucei rhodesiense; experiment: In vivo anti-parasitic activity against luciferase tagged Trypanosoma brucei rhodesiense STIB900 infected in NMRI mouse assessed as cured mouse at 10 mg/kg, ip for 4 consecutive days starting at day 3 post infection; type: functional, organism-based
SMILES,IC50 [1],EC50 [2],EC50 [3],EC50 [4],Ratio EC50 [5],CC50 at 30 h [6],EC50 [7],EC50 [8],EC50 [9],Ratio EC50 [10],Ratio EC50 [11],Ratio EC50 [12],selectivity ratio [13],selectivity ratio [14],Ratio EC50 [15],Ratio EC50 [16],metabolised at 24 h [17],other results
Cc1cc(O)ccc1C(=O)OCCCCCCCCCCCCCC[P+](c1ccccc1)(c1ccccc1)c1ccccc1.[Br-],81 nM,2.4 nM,3.2 nM,39 nM,1.32,> 200000 nM,2.2 nM,5 nM,2.2 nM,0.92,2,0.9,> 83000,> 5130,5 - 40,5 - 40,> 99%,half-life [18]: 1 h; metabolised at 2 h [19]: 70%; metabolised at 2 h [20]: < 20%
C/C(=C\Cc1c(O)c(Cl)c(C)c(C=O)c1O)CC/C=C(\C)[C@@H]1CC(=O)C(C)(C)O1 [ASCOFURANONE],2 nM,–,–,–,–,–,–,–,–,–,–,–,–,–,–,–,–,MIC [3]: 30 µM; MIC [21]: 250 µM; Ki [22]: 2.38 nM
COc1ccc([C@@H]2Sc3ccccc3N(CCN(C)C)C(=O)[C@@H]2OC(C)=O)cc1 [DILTIAZEM],–,–,–,–,–,–,–,–,–,–,–,–,–,–,–,–,–,remaining at 24 h [23]: 1%
O=Cc1ccc(OCCCCCCCCCCCCCC[P+](c2ccccc2)(c2ccccc2)c2ccccc2)cc1O.[Br-],220 nM,133 nM,67 nM,270 nM,0.51,> 200000 nM,42 nM,53 nM,110 nM,0.32,0.4,0.8,> 1500,> 740,–,–,–,Stability [24]: Stable; fraction unbound at 24 h [25]: 0.1; remaining at 0.25 h [26]: 12%
Cc1cc(O)cc(O)c1C(=O)OCCCCCCCCCCCCCC[P+](c1ccccc1)(c1ccccc1)c1ccccc1.[Br-],88 nM,1.6 nM,1.4 nM,5 nM,0.92,> 200000 nM,0.8 nM,1.4 nM,1.9 nM,0.51,0.89,1.2,> 125000,> 40000,5 - 40,5 - 40,< 20%,"Ki [27]: 870 nM; remaining at 0 min, 5 µM [28]: 100%; remaining at 0.25 h, 5 µM [29]: 92.3%; remaining at 0.5 h, 5 µM [30]: 101%; remaining at 1 h, 5 µM [31]: 96.4%; remaining at 2 h, 5 µM [32]: 94.1%; remaining at 0 min, 5 µM [33]: 100%; remaining at 0.25 h, 5 µM [34]: 93.4%; remaining at 0.5 h, 5 µM [35]: 86%; remaining at 1 h, 5 µM [36]: 93.4%; remaining at 2 h, 5 µM [37]: 93.1%; remaining at 0 min, 5 µM [38]: 100%; remaining at 0.25 h, 5 µM [39]: 79.4%; remaining at 0.5 h, 5 µM [40]: 66.9%; remaining at 1 h, 5 µM [41]: 58.2%; remaining at 2 h, 5 µM [42]: 52.6%; metabolised at 24 h [43]: < 30%; Activity [44]: 94.7%; Activity [45]: 27.9%; Activity [46]: inactive"
